Structures can show the parent of a compound that is named as a salt.
Columns and labels:
human EP1 receptor = target: T1, human EP1 receptor (Homo sapiens, UniProt P34995); experiment: human EP1 calcium mobilisation assay; format: cell-based; set-up: expressed in transfected cells; conditions: CHO-K1 cells, antagonism of PGE2; averages of a number of experiments; read-out: functional pKi value (human EP1 calcium mobilisation assay) (converted)
T1 sequence (P34995 1-402): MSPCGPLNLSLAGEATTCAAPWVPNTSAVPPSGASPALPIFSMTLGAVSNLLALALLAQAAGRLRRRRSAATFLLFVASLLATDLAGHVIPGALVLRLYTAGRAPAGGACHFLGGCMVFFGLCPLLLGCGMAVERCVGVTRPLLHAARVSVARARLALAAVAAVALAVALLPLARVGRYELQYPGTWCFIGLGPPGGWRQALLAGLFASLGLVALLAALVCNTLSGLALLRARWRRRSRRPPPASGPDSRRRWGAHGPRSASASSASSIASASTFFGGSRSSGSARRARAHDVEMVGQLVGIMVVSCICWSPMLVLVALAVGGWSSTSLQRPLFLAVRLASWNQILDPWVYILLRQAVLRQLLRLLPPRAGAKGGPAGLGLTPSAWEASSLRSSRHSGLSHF
How it was run: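 CHO-K1 cells stably transfected with human EP1 or EP3, loaded with Fluo-4 after 24 h culture, treated with compound, then challenged with PGE2. Calcium-driven fluorescence read on FLIPR; pIC50 is half-maximal inhibition of PGE2-induced calcium mobilisation, from curve fitting.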

human TP receptor = target: T2, human TP receptor (Homo sapiens, UniProt P21731); experiment: human TP calcium mobilisation assay; format: cell-based; conditions: CHO-K1 cells, antagonism of U46619; averages of a number of experiments; read-out: functional pKi value (human TP calcium mobilisation assay) (converted)
T2 construct: expressed in transfected cells; host or cells: CHO-K1
T2 sequence (P21731 1-343): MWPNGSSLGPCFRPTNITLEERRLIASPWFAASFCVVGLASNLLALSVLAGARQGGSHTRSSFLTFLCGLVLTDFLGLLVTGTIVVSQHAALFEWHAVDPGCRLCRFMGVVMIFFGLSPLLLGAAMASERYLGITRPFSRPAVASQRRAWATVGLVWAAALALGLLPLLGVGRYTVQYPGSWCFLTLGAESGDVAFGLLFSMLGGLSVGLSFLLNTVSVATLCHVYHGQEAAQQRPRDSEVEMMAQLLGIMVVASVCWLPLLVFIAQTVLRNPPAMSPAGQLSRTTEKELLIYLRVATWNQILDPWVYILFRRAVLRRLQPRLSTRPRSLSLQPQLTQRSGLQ
Description: To determine if a compound has agonist or antagonist activity at the TP receptor a functional calcium mobilisation assay may be performed. Briefly, the antagonist properties of compounds are assessed by their ability to inhibit the mobilisation of intracellular calcium ([Ca^2+]i) in response to activation of TP receptors by the stable TXA2 mimetic U46619 (9,11-dideoxy-11α,9α-epoxy-methanoprostaglandin F2α; commercially available from e.g Sigma-Aldrich). Increasing concentrations of antagonist reduce the amount of calcium that a given concentration of U46619 can mobilise. The net effect is to displace the U46619 concentration-effect curve. The amount of calcium produced is assessed using a calcium-sensitive fluorescent dye such as Fluo-4, AM and a suitable instrument such as a Fluorimetric Imaging Plate Reader (FLIPR). Increasing amounts of [Ca^2+]i produced by receptor activation increase the amount of fluorescence produced by the dye and give rise to an increasing signal. The signal may be detected using the FLIPR instrument and the data generated may be analysed with suitable curve-fitting software. The agonist activity of the compounds are determined by their ability to cause an increase in intracellular mobilisation in the absence of U46619.
The human TP calcium mobilisation assay utilises Chinese hamster ovary-K1 (CHO-K1) cells into which a stable (pCIN; BioTechniques 20 (1996): 102-110) vector containing TP cDNA has previously been transfected. Cells are cultured in suitable flasks containing culture medium such as DMEM:F-12 supplemented with 10% v/v foetal calf serum, 2 mM L-glutamine, 0.25 mg/ml geneticin, 100 μM flurbiprofen and 10 μg/ml puromycin.
For assay, cells are harvested using a proprietary reagent that dislodges cells such as Versene. Cells are re-suspended in a suitable quantity of fresh culture media for introduction into a 96-well plate. Following incubation for 24 hours at 37° C. the culture media is replaced with a medium containing Fluo-4 and the detergent pluronic acid, and a further incubation takes place. Concentrations of compounds are then added to the plate in order to construct concentration-effect curves. This may be performed on the FLIPR in order to assess the agonist properties of the compounds. Concentrations of U46619 are then added to the plate in order to assess the antagonist properties of the compounds.
The data so generated may be analysed by means of a computerised curve-fitting routine. The concentration of compound that elicits a half-maximal inhibition of the calcium mobilisation induced by U46619 (pIC50) may then be estimated, and the percentage activation caused by the compounds directly can be used to determine if there is any agonism present.

Row | SMILES | Ki (human EP1 receptor) [nM] | Ki (human TP receptor) [nM]
1 | Cc1cc(C(=O)Nc2ccc(CN3CC[C@@H](O)C3)cc2)nn1Cc1cc(Cl)cc2cc(C(C)C)oc12 [Example 17, 1-{[5-Chloro-2-(1-methylethyl)-1-benzofuran-7-yl]methyl}-N-(4-{[(3R)-3-hydroxy-1-pyrrolidinyl]methyl}phenyl)-5-methyl-1H-pyrazole-3-carboxamide hydrochloride] | ≤ 316 | > 3160
2 | Cc1cc(C(=O)Nc2ccc(CN3CCC(O)CC3)cc2)nn1Cc1cc(Cl)cc2cc(C(C)C)oc12 [Example 16, 1-{[5-Chloro-2-(1-methylethyl)-1-benzofuran-7-yl]methyl}-N-{4-[(4-hydroxy-1-piperidinyl)methyl]phenyl}-5-methyl-1H-pyrazole-3-carboxamide hydrochloride] | ≤ 316 | > 3160
3 | CCNCc1ccc(NC(=O)c2cc(C)n(Cc3cc(Cl)cc4cc(C(C)C)oc34)n2)cc1 [Example 15, 1-{[5-Chloro-2-(1-methylethyl)-1-benzofuran-7-yl]methyl}-N-{4-[(ethylamino)methyl]phenyl}-5-methyl-1H-pyrazole-3-carboxamide hydrochloride] | ≤ 316 | > 3160
4 | Cc1cc(C(=O)NN2CCOCC2)nn1Cc1cc(Cl)cc2cc(C3CCCCC3)oc12 [Example 28, 1-[(5-Chloro-2-cyclohexyl-1-benzofuran-7-yl)methyl]-5-methyl-N-4-morpholinyl-1H-pyrazole-3-carboxamide] | ≤ 316 | > 3160

More lines, now with the values ahead:

Row | Ki (human EP1 receptor) [nM] | Ki (human TP receptor) [nM] | SMILES
5 | ≤ 316 | < 3160 | Cc1cc(C(=O)O)nn1Cc1cc(Cl)cc2cc(C(C)C)oc12 [Example 3, 1-{[5-Chloro-2-(1-methylethyl)-1-benzofuran-7-yl]methyl}-5-methyl-1H-pyrazole-3-carboxylic Acid]
6 | ≤ 316 | < 31.6 | CC(C)c1cc2cc(Cl)cc(Cc3ccc(C(=O)O)o3)c2o1 [Example 1, 5-{[5-Chloro-2-(1-methylethyl)-1-benzofuran-7-yl]methyl}-2-furancarboxylic Acid]

— patent publication US20090099169A1, “Benzofuran Compounds As EP1 Receptor Antagonists” (GLAXO GROUP LIMITED, priority 2006, published 2009)
